Data taken from patent US20240150293A1, “SPIROCYCLOHEXANE DERIVATIVES, PHARMACEUTICAL COMPOSITIONS CONTAINING THEM AND THEIR USES AS ANTI-APOPTOTIC INHIBITORS” (LES LABORATOIRES SERVIER, priority 2021, published 2024).
Like-named read-outs stand apart in the source and are kept apart here.

Legend:
NCI-H929 cell lines = assay: In vitro cytotoxicity, CellTiter-Glo (CTG) assay (Example B, Method B); format: cell-based; details: Homo sapiens, NCI-H929, 48 h, NCI-H929 cells, 48 h incubation, read-out: C50
In short: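 NCI-H929 cells exposed to an 11-point compound series from 10 mM DMSO stocks (top final 30 μM) for 48 h at 37° C., 5% CO2. Viability measured as ATP by CellTiter-Glo luminescence; C50 is the concentration giving 50% cellular viability.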

[1] = target: Cy5-labelled Mcl1 (amino acids 171-321) C286S protein (UniProtKB Q07820) (Homo sapiens (Human), UniProt Q07820, C286S); assay: Inhibition of Mcl-1 by the fluorescence quenching assay (Example A, Method B); format: binding
In short: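 Cy5-labelled Mcl1 171-321 C286S (1 nM) quenched by TQ5WS-labelled PUMA peptide (10, 20 or 400 nM); displacement raises fluorescence (Ex 620/Em 680 nm). Buffer 10 mM HEPES, 150 mM NaCl, 0.05% Tween 20, pH 7.4, 5% DMSO; 2 h at room temperature, 11-point curves, IC50 converted to Ki (cKi/eKi).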

Chain of Cy5-labelled Mcl1 (amino acids 171-321) C286S protein (Q07820 171-321 C286S): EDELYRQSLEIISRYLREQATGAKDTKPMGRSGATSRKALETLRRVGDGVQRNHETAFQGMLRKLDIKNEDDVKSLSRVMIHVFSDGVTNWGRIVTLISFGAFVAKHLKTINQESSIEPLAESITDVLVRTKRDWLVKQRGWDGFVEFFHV

| Structure (SMILES) | IC50 (NCI-H929 cell lines) [nM] | Ki [1] [nM] | Ki ([1]; Ki determined from IC50) [nM] | inhibition at 1 µM ([1]; @ 1 μM, read-out: Mcl-1 inhibition, % at a single concentration) [%] |
| --- | --- | --- | --- | --- |
| C[C@@H](COc1ccnc2c1[C@H](C)CCC2)C[C@H]1Cc2cc3c(cc2[C@]12CC[C@@](Nc1cccc(Cl)c1)(C(=O)OCOC(=O)C(C)(C)C)CC2)OCO3 [Example 942, [(2,2-dimethylpropanoyl)oxy]methyl (1r,4S,6′S)-4-(3-chloroanilino)-6′-[(2R)-2-methyl-3-{[(5R)-5-methyl-5,6,7,8-tetrahydroquinolin-4-yl]oxy}propyl]-6′,7′-dihydro-2′H-spiro[cyclohexane-1,5′-indeno[5,6-d][1,3]dioxole]-4-carboxylate] | 222 | 15.5 |  |  |
| C[C@@H](COc1ccnc2c1[C@H](C)CCC2)C[C@H]1Cc2cc3c(cc2[C@]12CC[C@@](Nc1ccc(Cl)c(Cl)c1)(C(=O)O)CC2)OCO3 [Example 887, (1r,4S,6′S)-4-(3,4-dichloroanilino)-6′-[(2R)-2-methyl-3-{[(5R)-5-methyl-5,6,7,8-tetrahydroquinolin-4-yl]oxy}propyl]-6′,7′-dihydro-2′H-spiro[cyclohexane-1,5′-indeno[5,6-d][1,3]dioxole]-4-carboxylic acid] | 151 | 0.293 |  |  |
| CCCOc1ccc2c(c1)[C@]1(CC[C@@](Nc3cccc(Cl)c3)(C(=O)O)CC1)[C@@H](C[C@@H](C)COc1ccnc3c1[C@H](C)CCC3)C2 [Example 787, (1r,2′S,4S)-4-(3-chloroanilino)-2′-[(2R)-2-methyl-3-{[(5R)-5-methyl-5,6,7,8-tetrahydroquinolin-4-yl]oxy}propyl]-6′-propoxy-2′,3′-dihydrospiro[cyclohexane-1,1′-indene]-4-carboxylic acid] | 103 | 0.0573 |  |  |
| CC[C@@H]1COc2cc3c(cc2O1)[C@]1(CC[C@@](Nc2cccc(Cl)c2)(C(=O)O)CC1)[C@@H](C[C@@H](C)COc1ccnc2c1[C@H](C)CCC2)C3 [Example 979, (1r,3′R,4S,7′S)-4-(3-chloroanilino)-3′-ethyl-7′-[(2R)-2-methyl-3-{[(5R)-5-methyl-5,6,7,8-tetrahydroquinolin-4-yl]oxy}propyl]-2′,3′,7′,8′-tetrahydrospiro[cyclohexane-1,6′-indeno[5,6-b][1,4]dioxine]-4-carboxylic acid] | 67.2 | 0.0299 |  |  |
| C[C@@H](COc1ccnc2c1[C@H](C)CCC2)CN1Cc2ccccc2[C@]12CC[C@@](Nc1cccc(Cl)c1)(C(=O)O)CC2 [Example 40, (1s,4S)-4-(3-chloroanilino)-2′-[(2R)-2-methyl-3-{[(5R)-5-methyl-5,6,7,8-tetrahydroquinolin-4-yl]oxy}propyl]-2′,3′-dihydrospiro[cyclohexane-1,1′-isoindole]-4-carboxylic acid] | 280 |  | 0.981 |  |
| COC[C@H]1C[C@@H]1c1ccc2c(c1)[C@]1(CC[C@@](Nc3cccc(Cl)c3)(C(=O)O)CC1)[C@@H](C[C@@H](C)COc1ccnc3c1[C@H](C)CCC3)C2 [Example 874, (1r,2′S,4S)-4-(3-chloroanilino)-6′-[(1S,2S)-2-(methoxymethyl)cyclopropyl]-2′-[(2R)-2-methyl-3-{[(5R)-5-methyl-5,6,7,8-tetrahydroquinolin-4-yl]oxy}propyl]-2′,3′-dihydrospiro[cyclohexane-1,1′-indene]-4-carboxylic acid] | 113 | 0.161 |  |  |
| CCOC(=O)[C@]1(Nc2cccc(Cl)c2)CC[C@@]2(CC1)c1cc3c(cc1C[C@@H]2C[C@@H](C)COc1ccnc2c1[C@H](C)CCC2)OCO3 [Example 930, ethyl (1r,4S,6′S)-4-(3-chloroanilino)-6′-[(2R)-2-methyl-3-{[(5R)-5-methyl-5,6,7,8-tetrahydroquinolin-4-yl]oxy}propyl]-6′,7′-dihydro-2′H-spiro[cyclohexane-1,5′-indeno[5,6-d][1,3]dioxole]-4-carboxylate] | > 30000 |  |  | 4.5 |
| Cc1ccc2c(c1)CN(C[C@@H](C)COc1ccnc3c1[C@H](C)CCC3)[C@]21CC[C@](Nc2cccc(Cl)c2)(C(=O)O)CC1 [Example 55, (1s,4S)-4-(3-chloroanilino)-5′-methyl-2′-[(2R)-2-methyl-3-{[(5R)-5-methyl-5,6,7,8-tetrahydroquinolin-4-yl]oxy}propyl]-2′,3′-dihydrospiro[cyclohexane-1,1′-isoindole]-4-carboxylic acid] | 181 |  | 0.104 |  |
| CCC1Oc2cc3c(cc2O1)[C@]1(CC[C@@](Nc2cccc(Cl)c2)(C(=O)O)CC1)[C@@H](C[C@@H](C)COc1ccnc2c1[C@H](C)CCC2)C3 (single isomer, unassigned) [Example 967] | 137 | 0.0263 |  |  |
| COCCOc1cc2c(cc1Cl)C[C@H](C[C@@H](C)COc1ccnc3c1[C@H](C)CCC3)[C@]21CC[C@](Nc2cccc(Cl)c2)(C(=O)O)CC1 [Example 822, (1r,2′S,4S)-5′-chloro-4-(3-chloroanilino)-6′-(2-methoxyethoxy)-2′-[(2R)-2-methyl-3-{[(5R)-5-methyl-5,6,7,8-tetrahydroquinolin-4-yl]oxy}propyl]-2′,3′-dihydrospiro[cyclohexane-1,1′-indene]-4-carboxylic acid] | 64.1 | 0.149 |  |  |
| C[C@@H](COc1ccnc2c1[C@@H](C)CCC2)C[C@@H]1Cc2cc3c(cc2[C@]12CC[C@@](Nc1cccc(Cl)c1)(C(=O)O)CC2)OCO3 [Example 843, (1r,4R,6′R)-4-(3-chloroanilino)-6′-[(2R)-2-methyl-3-{[(5S)-5-methyl-5,6,7,8-tetrahydroquinolin-4-yl]oxy}propyl]-6′,7′-dihydro-2′H-spiro[cyclohexane-1,5′-indeno[5,6-d][1,3]dioxole]-4-carboxylic acid] | 1380 | 3.58 |  |  |
| C[C@@H](COc1ccnc2c1[C@H](C)CC[C@H]2F)C[C@H]1Cc2cc3c(cc2[C@]12CC[C@@](Nc1cccc(Cl)c1)(C(=O)O)CC2)OCCO3 [Example 964, (1r,4S,7′S)-4-(3-chloroanilino)-7′-[(2R)-3-{[(5R,8R)-8-fluoro-5-methyl-5,6,7,8-tetrahydroquinolin-4-yl]oxy}-2-methylpropyl]-2′,3′,7′,8′-tetrahydrospiro[cyclohexane-1,6′-indeno[5,6-b][1,4]dioxine]-4-carboxylic acid] | 109 | 0.0579 |  |  |
| COCCNC(=O)OC(C)OC(=O)[C@]1(Nc2cccc(Cl)c2)CC[C@@]2(CC1)c1cc3c(cc1C[C@@H]2C[C@@H](C)COc1ccnc2c1[C@H](C)CCC2)OCO3 (stereo partly drawn) [Example 947, 1-{[(2-methoxyethyl)carbamoyl]oxy}ethyl (1r,4S,6′S)-4-(3-chloroanilino)-6′-[(2R)-2-methyl-3-{[(5R)-5-methyl-5,6,7,8-tetrahydroquinolin-4-yl]oxy}propyl]-6′,7′-dihydro-2′H-spiro[cyclohexane-1,5′-indeno[5,6-d][1,3]dioxole]-4-carboxylate] | 604 | 0.256 |  |  |
| Cc1c(Cl)cccc1N[C@]1(C(=O)O)CC[C@@]2(CC1)c1cc3c(cc1CN2C[C@@H](C)COc1ccnc2c1[C@H](C)CCC2)OCO3 [Example 50, (1r,4R)-4-(3-chloro-2-methylanilino)-6′-[(2R)-2-methyl-3-{[(5R)-5-methyl-5,6,7,8-tetrahydroquinolin-4-yl]oxy}propyl]-6′,7′-dihydro-2′H-spiro[cyclohexane-1,5′-[1,3]dioxolo[4,5-f]isoindole]-4-carboxylic acid] | 13500 |  | 72 |  |
| COCCOC(=O)[C@]1(Nc2cccc(Cl)c2)CC[C@@]2(CC1)c1cc3c(cc1C[C@@H]2C[C@@H](C)COc1ccnc2c1[C@H](C)CCC2)OCO3 [Example 934, 2-methoxyethyl (1r,4S,6′S)-4-(3-chloroanilino)-6′-[(2R)-2-methyl-3-{[(5R)-5-methyl-5,6,7,8-tetrahydroquinolin-4-yl]oxy}propyl]-6′,7′-dihydro-2′H-spiro[cyclohexane-1,5′-indeno[5,6-d][1,3]dioxole]-4-carboxylate] | > 30000 | 69 |  |  |
| C[C@@H](COc1ccnc2c1[C@H](C)CCC2)C[C@H]1Cc2cc3c(cc2[C@]12CC[C@@](Nc1cccc(Cl)c1)(C(=O)O)CC2)OCCCO3 [Example 837, (1r,4S,8′S)-4-(3-chloroanilino)-8′-[(2R)-2-methyl-3-{[(5R)-5-methyl-5,6,7,8-tetrahydroquinolin-4-yl]oxy}propyl]-3′,4′,8′,9′-tetrahydro-2′H-spiro[cyclohexane-1,7′-indeno[5,6-b][1,4]dioxepine]-4-carboxylic acid] | 31 | 0.00733 |  |  |
| COC(=O)OCOC(=O)[C@]1(Nc2cccc(Cl)c2)CC[C@@]2(CC1)c1cc3c(cc1C[C@@H]2C[C@@H](C)COc1ccnc2c1[C@H](C)CCC2)OCO3 [Example 946, [(methoxycarbonyl)oxy]methyl (1r,4S,6′S)-4-(3-chloroanilino)-6′-[(2R)-2-methyl-3-{[(5R)-5-methyl-5,6,7,8-tetrahydroquinolin-4-yl]oxy}propyl]-6′,7′-dihydro-2′H-spiro[cyclohexane-1,5′-indeno[5,6-d][1,3]dioxole]-4-carboxylate] | 34.2 | 11 |  |  |
| C[C@@H](COc1ccnc2c1[C@H](C)CCC2)C[C@H]1Cc2cc3c(cc2[C@]12CC[C@@](Nc1cccc(Cl)c1)(C(=O)O)CC2)OCC[C@H](C)O3 [Example 985, (1r,2′S,4S,8′S)-4-(3-chloroanilino)-2′-methyl-8′-[(2R)-2-methyl-3-{[(5R)-5-methyl-5,6,7,8-tetrahydroquinolin-4-yl]oxy}propyl]-3′,4′,8′,9′-tetrahydro-2′H-spiro[cyclohexane-1,7′-indeno[5,6-b][1,4]dioxepine]-4-carboxylic acid] | 121 | 0.0955 |  |  |
